These results are taken from article PMC10291553, “Exploring Structure–Activity Relationships in Photodynamic Therapy Anticancer Agents Based on Ir(III)-COUPY Conjugates” (Journal of Medicinal Chemistry, 2023).

Where “and” joins values, the source holds several entries; their conditions need not be identical. Equal values may be shown once. Read-outs that look alike come from different tables or passages of the source. Some results are limits rather than exact numbers.

The test system of one experiment is A2780cis cells. The experiment in a line: Photo- and cytotoxic activity determination (MTT), A2780cis cells, normoxia or hypoxia. It is filed as cell-based. The text has this:
(§1) Having shown that the Ir(III)-COUPY conjugates can sensitize both type I and II ROS through spectroscopic techniques and readily internalize into living cells, their photocytotoxicity was screened in various cancer cell lines. This screening included two representative melanoma cell lines (human A375 and […] human SK-MEL-28) and cancer cells with resistance to the clinical drug cisplatin. For the latter, both sensitive and cisplatin-resistant ovarian cancer cells (A2780 and A2780cis) as well as HeLa cells, which also show a degree of chemoresistance to the platinum anticancer drug in vitro,[54] were used. For the determination of dark and light cytotoxicity, dose–response curves were assayed from both conditions to provide the correspondent IC50 values, which correspond to the concentration needed for inhibition of cell growth by 50%. Phototherapeutic index (PI) was calculated as the ratio of dark to light IC50 value for each compound.
(§2) A375, HeLa, and SK-MEL-28 cells were cultured in Dulbecco’s modified Eagle medium (DMEM) supplemented with 10% FBS, L-glutamine, and 1% penicillin–streptomycin. A2780 and A2780cis cells were grown in RPMI-1640 cell medium supplemented with 10% fetal bovine serum (FBS) and 2 mM L-glutamine. Acquired resistance to cisplatin in the A2780cis cell line was maintained by adding cisplatin 1 μM to culture medium every second passage. Cells were cultured in a humidified incubator at 310 K with 5% CO2 atmosphere and subcultured two or three times a week with appropriate densities and were confirmed to be mycoplasma-free using a standard Hoechst DNA staining method.
A2780, A2780cis, HeLa, A375, and SK-MEL-28 cells were maintained at logarithmic growth-phase and cultured in 96-well plates at a density of 5000 cells/well in complete medium for 24 h at 310 K, 5% CO2 in a humidified incubator. For hypoxia experiments, a hypoxia condition was set up by Tissue Culture Service at University of Murcia using nitrogen (N2) to displace O2 down to a minimum of 2% in a Forma Steri-Cycle i160 incubator (Thermo Fisher Scientific). […] A light-based treatment schedule was performed as follows: 1 h incubation with the compounds in the dark, followed by 1 h incubation under irradiation conditions by placing the Photoreactor EXPO-LED from Luzchem (Canada) fitted with green lamps (final light intensity applied of 1.5 mW/cm^2 at λmax = 520 nm) inside the CO2 incubator. All the cell culture plates subjected to light irradiation included untreated controls to verify that cell viability was not affected by light. Then, treatment-containing media was removed, and fresh media was added for a 48 h cell recovery period; the temperature throughout the experiment remained at 310 K. Dark control samples were placed in the same dark conditions and then kept incubated for 1 h in the dark in the humidified CO2 incubator. Medium was then aspirated by suction, cells were loaded with 50 μL of MTT solution (1 mg/mL) for additional 4 h and then removed, and 50 μL of DMSO was added to solubilize the purple formazan crystals formed in active cells. The absorbance was measured at 570 nm using a microplate reader (FLUOstar Omega), and the IC50 values were calculated based on the inhibitory rate curves using the following equation [drawing 4] 4 where I represents the percentage inhibition of viability observed, Imax is the maximal inhibitory effect, IC50 is the concentration that inhibits 50% of maximal growth, C is the concentration of the treatment, and n is the slope of the semi-logarithmic dose–response sigmoidal curves. The non-linear fitting was performed using SigmaPlot 14.0 software. All experiments were performed in three independent studies with n = 3 replicates per concentration level. For a detailed phototoxicity procedure, ref ([43]) includes technical explanations.

In the next experiment the test system is HeLa. The experiment in a line: Photo- and cytotoxic activity determination (MTT), HeLa cells. It is filed as cell-based. The settings on record: normoxia.
Text: as §1, §2
(§3) A2780, A2780cis, HeLa, A375, and SK-MEL-28 cells were maintained at logarithmic growth-phase and cultured in 96-well plates at a density of 5000 cells/well in complete medium for 24 h at 310 K, 5% CO2 in a humidified incubator. For hypoxia experiments, a hypoxia condition was set up by Tissue Culture Service at University of Murcia using nitrogen (N2) to displace O2 down to a minimum of 2% in a Forma Steri-Cycle i160 incubator (Thermo Fisher Scientific). Serial dilutions of the compounds were added at the final concentrations in the range of 0–100 μM in a final volume of 100 μL per well. A light-based treatment schedule was performed as follows: 1 h incubation with the compounds in the dark, followed by 1 h incubation under irradiation conditions by placing the Photoreactor EXPO-LED from Luzchem (Canada) fitted with green lamps (final light intensity applied of 1.5 mW/cm^2 at λmax = 520 nm) inside the CO2 incubator. All the cell culture plates subjected to light irradiation included untreated controls to verify that cell viability was not affected by light. Then, treatment-containing media was removed, and fresh media was added for a 48 h cell recovery period; the temperature throughout the experiment remained at 310 K. Dark control samples were placed in the same dark conditions and then kept incubated for 1 h in the dark in the humidified CO2 incubator. Medium was then aspirated by suction, cells were loaded with 50 μL of MTT solution (1 mg/mL) for additional 4 h and then removed, and 50 μL of DMSO was added to solubilize the purple formazan crystals formed in active cells. The absorbance was measured at 570 nm using a microplate reader (FLUOstar Omega), and the IC50 values were calculated based on the inhibitory rate curves using the following equation [drawing 4] 4 where I represents the percentage inhibition of viability observed, Imax is the maximal inhibitory effect, IC50 is the concentration that inhibits 50% of maximal growth, C is the concentration of the treatment, and n is the slope of the semi-logarithmic dose–response sigmoidal curves. The non-linear fitting was performed using SigmaPlot 14.0 software. All experiments were performed in three independent studies with n = 3 replicates per concentration level. For a detailed phototoxicity procedure, ref ([43]) includes technical explanations.

A further experiment concerns A375. The experiment can be described thus: Photo- and cytotoxic activity determination (MTT), A375 cells. It is filed as cell-based, human. The conditions noted are these: normoxia; for IC50: 48 h drug-free medium; for A375 PI (phototherapeutic index), IC50 dark/IC50 irradiated: 520 nm, dark tested up to 100 μM.
Text: as §1, §2, §3

Another experiment deals with A2780. The experiment can be described thus: Photo- and cytotoxic activity determination (MTT), A2780 cells. In kind it is cell-based. The settings on record: normoxia.
Text: as §1, §2, §3

Setting [1] is: A2780cis, hypoxia 2% O2, dark, tested up to 250 μM, read-out: Hypoxia Dark IC50.
Where [2] appears, read: A2780cis, normoxia 21% O2, dark, tested up to 250 μM, read-out: Normoxia Dark IC50.
[3] abbreviates: 520 nm, dark tested up to 100 μM.

As usually defined, the inhibition is the relative decrease from the control value, in per cent. What is called IC50 is the concentration that inhibits the measured activity by half. Take `CC1=C/C(=C(\C#N)c2cc[n+](C)cc2)Oc2ccccc21` [1b]: the inhibition at 250 µM with A2780cis cells (250 μM, A2780cis, 2 h incubation in the dark, 48 h drug-free recovery, hypoxia, read-out: Partial inhibition (% of cell growth inhibition with respect to untreated controls), Hypoxia) was 4.5 ± 0.6%; in the experiment on A2780cis cells (250 μM, A2780cis, 2 h incubation in the dark, 48 h drug-free recovery, normoxia, read-out: Partial inhibition (% of cell growth inhibition with respect to untreated controls), Normoxia) it was 24 ± 3%. Also, the IC50 in the experiment with A2780cis cells (A2780cis, hypoxia 2% O2, 1 h incubation + 1 h green light 520 nm, 48 h drug-free, read-out: Hypoxia 520 nm IC50) was above 250 µM; in the experiment on A2780cis cells (setting [1]) it was above 250 µM; with A2780cis cells (A2780cis, hypoxia, 520 nm, read-out: A2780cis Light 520 nm IC50 (microM) Hypoxia), above 250 µM; in the experiment with A2780cis cells (A2780cis, hypoxia, dark, read-out: A2780cis Dark IC50 (microM) Hypoxia), above 250 µM; in the experiment with A2780cis cells (A2780cis, normoxia 21% O2, 1 h incubation + 1 h green light 520 nm, 48 h drug-free, read-out: Normoxia 520 nm IC50) it was above 250 µM; in the experiment with A2780cis cells (setting [2]) it was above 250 µM. In addition, the half-inhibitory concentration (IC50) was above 250 µM with A2780cis cells (A2780cis, normoxia, 520 nm, read-out: A2780cis Light 520 nm IC50 (microM) Normoxia); above 250 µM with A2780cis cells (A2780cis, normoxia, dark, up to 250 microM, read-out: A2780cis Dark IC50 (microM) Normoxia); above 100 µM with HeLa (Homo sapiens, HeLa, 520 nm, read-out: HeLa Light 520 nm IC50 (microM) Normoxia); above 100 µM in the experiment with HeLa (Homo sapiens, HeLa, 1 h incubation + 1 h green light 520 nm, 1.5 mW cm^–2, 48 h drug-free medium, read-out: HeLa light IC50); above 100 µM with HeLa (Homo sapiens, HeLa, dark, read-out: HeLa Dark IC50 (microM) Normoxia); above 100 µM with HeLa (Homo sapiens, HeLa, kept in the dark, 2 h treatment, 48 h drug-free medium, read-out: HeLa dark IC50). For the same compound, the 50% inhibitory concentration (IC50) was 10 ± 2 µM in the experiment on A375 (Homo sapiens, A-375, 1 h incubation + 1 h green light 520 nm, 1.5 mW cm^–2, read-out: A375 light IC50); above 100 µM in the experiment on A375 (Homo sapiens, A-375, kept in the dark, 2 h treatment, read-out: A375 dark IC50); above 100 µM in the experiment on A2780 (Homo sapiens, A2780, 520 nm, read-out: A2780 Light 520 nm IC50 (microM) Normoxia); above 100 µM in the experiment with A2780 (Homo sapiens, A2780, 1 h incubation + 1 h green light 520 nm, 1.5 mW cm^–2, 48 h drug-free medium, read-out: A2780 light IC50); above 100 µM with A2780 (Homo sapiens, A2780, dark, read-out: A2780 Dark IC50 (microM) Normoxia); above 100 µM with A2780 (Homo sapiens, A2780, kept in the dark, 2 h treatment, 48 h drug-free medium, read-out: A2780 dark IC50). The “A375 PI (phototherapeutic index), IC50 dark/IC50 irradiated” value in the experiment with A375 is above 10.
`CCCCn1c2[n+](c3cc(C(=O)NCCCNC(=O)C[n+]4ccc(/C(C#N)=C5/C=C(C)c6ccc(N(CC)CC)cc6O5)cc4)ccc31)[Ir-3]13([c]4ccccc4-c4[nH]c5ccccc5[n+]41)([c]1ccccc1-c1[nH]c4ccccc4[n+]13)[n+]1c-2ccc2ccccc21` [3a]: the “Partial inhibition (% of cell growth inhibition with respect to untreated controls), Hypoxia” value with A2780cis cells (250 μM, A2780cis, 2 h incubation in the dark, 48 h drug-free recovery, hypoxia) turned out to be 49 ± 4%. Also, the “Partial inhibition (% of cell growth inhibition with respect to untreated controls), Normoxia” value in the experiment on A2780cis cells (250 μM, A2780cis, 2 h incubation in the dark, 48 h drug-free recovery, normoxia) is given as 58 ± 7%. Besides, in the experiment with A2780cis cells (A2780cis, 465 nm), the “PI (phototherapeutic index), blue light” value was above 52.6. The IC50 in the experiment with A2780cis cells (A2780cis, 1 h incubation + 1 h blue light 465 nm, 5 mW/cm2, 48 h drug-free, read-out: 465 nm IC50) was 1.9 µM; in the experiment with A2780cis cells (setting [1]), above 250 µM; in the experiment with A2780cis cells (setting [2]), above 250 µM; in the experiment on A2780cis cells (hypoxia, 520 nm, read-out: A2780cis Light 520 nm IC50 (microM) Hypoxia), 3.8 ± 0.3 µM; in the experiment with A2780cis cells (hypoxia, dark, read-out: A2780cis Dark IC50 (microM) Hypoxia), above 250 µM; in the experiment on A2780cis cells (normoxia, 1 h incubation + 1 h green light 520 nm, 1.5 mW cm^–2, 48 h drug-free medium, read-out: A2780cis light IC50), 0.7 ± 0.06 µM. For the same compound, the half-inhibitory concentration (IC50) with A2780cis cells (normoxia, dark, up to 250 microM, read-out: A2780cis Dark IC50 (microM) Normoxia) was above 250 µM; in the experiment on A2780cis cells (normoxia, kept in the dark, tested up to 100 μM, 2 h treatment, 48 h drug-free medium, read-out: A2780cis dark IC50), above 100 µM; in the experiment with HeLa (1 h incubation + 1 h green light 520 nm, 1.5 mW cm^–2, 48 h drug-free medium, read-out: HeLa light IC50), 8.6 ± 0.7 µM; in the experiment with HeLa (kept in the dark, 2 h treatment, 48 h drug-free medium, read-out: HeLa dark IC50) it was above 100 µM; in the experiment with A375 (1 h incubation + 1 h green light 520 nm, 1.5 mW cm^–2, read-out: A375 light IC50), 18 ± 3 µM; in the experiment on A375 (kept in the dark, 2 h treatment, read-out: A375 dark IC50), above 100 µM. Further, the IC50 is 1.07 ± 0.07 µM with A2780 (1 h incubation + 1 h green light 520 nm, 1.5 mW cm^–2, 48 h drug-free medium, read-out: A2780 light IC50) and above 100 µM in the experiment on A2780 (kept in the dark, 2 h treatment, 48 h drug-free medium, read-out: A2780 dark IC50). In addition, in the experiment on A2780cis cells (A2780cis, hypoxia 2% O2, 520 nm, dark tested up to 250 μM), the “Hypoxia PI (phototherapeutic index)” value was > 65.8 and > 66. For the same compound, the “Normoxia PI (phototherapeutic index)” value in the experiment on A2780cis cells (A2780cis, normoxia 21% O2, 520 nm, dark tested up to 250 μM) is > 357.1 and > 357. Moreover, in the experiment with A2780cis cells (normoxia, 520 nm, dark tested up to 100 μM), the “A2780cis PI (phototherapeutic index), IC50 dark/IC50 irradiated” value is recorded as above 143. Also, the “HeLa PI (phototherapeutic index), IC50 dark/IC50 irradiated” value in the experiment on HeLa (setting [3]) was above 12. Besides, in the experiment on A375, the “A375 PI (phototherapeutic index), IC50 dark/IC50 irradiated” value is on record as above 6. In addition, the “A2780 PI (phototherapeutic index), IC50 dark/IC50 irradiated” value in the experiment with A2780 (setting [3]) is recorded as above 94.
